Source: patent publication US20240376153A1, “CNP CYCLIC PEPTIDE, AND MEDICINE, EXTERNAL PREPARATION AND COSMETIC EACH CONTAINING SAID CYCLIC PEPTIDE” (Igisu Co., Ltd., priority 2015, published 2024)
Entries after “also recorded” stand apart in the source; their conditions may differ. Positions of bridges follow the written chain, without caps; N, C: chain ends. Residues, ends and D or L forms follow the SMILES beside them. No end group written: not given here.

Tests used:
[1] = tested on: nasal cavity, the affected site; assay: Effect on nose of cyclic peptides in which amino acid was substituted; conditions: Formulation C = 30 μg/ml, nasal application once/day
Protocol: The obtained cyclic peptide was combined with purified water at 1, 5, 30, 100, 500 μg/ml and applied to the affected site. Formulations A to E in the tables refers to the cyclic peptide of 1, 5, 30, 100, 500 μg/ml, respectively.

affected site of skin = assay: Effect on skin of cyclic peptides in which amino acid was substituted; assay type: in vivo, human
Protocol: Formulations A to E refers to cyclic peptide concentration of 1, 5, 30, 100, 500 μg/ml, respectively.

[2] = rough skin, Formulation C (30 μg/ml)
[3] = atopic dermatitis, Formulation B (5 μg/ml in purified water) applied to affected site
[4] = atopic dermatitis, Formulation C (30 μg/ml in purified water) applied to affected site
[5] = rough skin, Formulation A (1 μg/ml)
[6] = psoriasis vulgaris, Formulation C (30 μg/ml)

CC[C@H](C)[C@@H]1NC(=O)[C@H](CCCNC(=N)N)NC(=O)[C@H](CC(=O)O)NC(=O)[C@H](CCSC)NC(=O)[C@H](CCCCN)NC(=O)[C@H](CC(C)C)NC(=O)[C@H](C)NC(=O)[C@H](Cc2ccccc2)NC(=O)[C@@H](N)CSSC[C@@H](C(=O)O)NC(=O)CNC(=O)[C@H](CC(C)C)NC(=O)CNC(=O)[C@H](CO)NC(=O)[C@H](CCSC)NC(=O)[C@H](CO)NC(=O)CNC1=O [SEQ ID NO. 32] (H-CFALKMDRIGSMSGLGC-OH; disulfide 1-17; N-terminus and C-terminus assumed)
irritation upon nasal application [1]: There was no irritation upon nasal application.

CC[C@H](C)[C@@H]1NC(=O)[C@H](CCCNC(=N)N)NC(=O)[C@H](CC(=O)O)NC(=O)[C@H](CC(C)C)NC(=O)[C@H](CCCCN)NC(=O)[C@H](CC(C)C)NC(=O)CNC(=O)[C@H](Cc2ccccc2)NC(=O)[C@@H](N)CSSC[C@@H](C(=O)O)NC(=O)CNC(=O)[C@H](CC(C)C)NC(=O)CNC(=O)[C@H](CO)NC(=O)[C@H](CCSC)NC(=O)[C@H]([C@@H](C)O)NC(=O)CNC1=O [SEQ ID NO: 10] (H-CFGLKLDRIGTMSGLGC-OH; disulfide 1-17; N-terminus and C-terminus assumed)
irritation upon nasal application [1]: There was no irritation upon nasal application.

CC[C@H](C)[C@@H]1NC(=O)[C@H](CCCNC(=N)N)NC(=O)[C@H](CC(=O)O)NC(=O)[C@H](CC(C)C)NC(=O)[C@H](CCCCN)NC(=O)[C@H](CC(C)C)NC(=O)CNC(=O)[C@H](Cc2ccccc2)NC(=O)[C@@H](N)CSSC[C@@H](C(=O)O)NC(=O)CNC(=O)[C@H](CC(C)C)NC(=O)CNC(=O)[C@H](CO)NC(=O)[C@H](CCSC)NC(=O)[C@H](C)NC(=O)CNC1=O [SEQ ID NO: 11] (H-CFGLKLDRIGAMSGLGC-OH; disulfide 1-17; N-terminus and C-terminus assumed)
irritation upon nasal application [1]: There was no irritation upon nasal application.

CC[C@H](C)[C@@H]1NC(=O)[C@H](CCCNC(=N)N)NC(=O)[C@H](CC(=O)O)NC(=O)[C@H](CC(C)C)NC(=O)[C@H](CCCCN)NC(=O)[C@H](CC(C)C)NC(=O)CNC(=O)[C@H](Cc2ccccc2)NC(=O)[C@@H](N)CSSC[C@@H](C(=O)O)NC(=O)CNC(=O)[C@H](CC(C)C)NC(=O)CNC(=O)[C@H](C)NC(=O)[C@H](CCSC)NC(=O)[C@H](CO)NC(=O)CNC1=O [SEQ ID NO: 16] (H-CFGLKLDRIGSMAGLGC-OH; disulfide 1-17; N-terminus and C-terminus assumed)
irritation upon nasal application [1]: clear. There was no irritation upon nasal application.

CC[C@H](C)[C@@H]1NC(=O)[C@H](CCCNC(=N)N)NC(=O)[C@H](CC(=O)O)NC(=O)[C@H](CC(C)C)NC(=O)[C@H](CCCCN)NC(=O)[C@H](CC(C)C)NC(=O)CNC(=O)[C@H](Cc2ccccc2)NC(=O)[C@@H](N)CSSC[C@@H](C(=O)O)NC(=O)CNC(=O)[C@H](C(C)C)NC(=O)CNC(=O)[C@H](CO)NC(=O)[C@H](CCSC)NC(=O)[C@H](CO)NC(=O)CNC1=O [SEQ ID NO: 18] (H-CFGLKLDRIGSMSGVGC-OH; disulfide 1-17; N-terminus and C-terminus assumed)
irritation upon nasal application [1]: There was no irritation upon nasal application.

CC[C@H](C)[C@@H]1NC(=O)CNC(=O)[C@H](CO)NC(=O)[C@H](CCSC)NC(=O)[C@H](CO)NC(=O)CNC(=O)[C@H]([C@@H](C)CC)NC(=O)[C@H](CCCNC(=N)N)NC(=O)[C@H](CC(=O)O)NC(=O)[C@H](CC(C)C)NC(=O)[C@H](CCCCN)NC(=O)[C@H](CC(C)C)NC(=O)CNC(=O)[C@H](Cc2ccccc2)NC(=O)[C@@H](N)CSSC[C@@H](C(=O)O)NC(=O)CNC1=O [SEQ ID NO: 19] (H-CFGLKLDRIGSMSGIGC-OH; disulfide 1-17; N-terminus and C-terminus assumed)
irritation upon nasal application [1]: There was no irritation upon nasal application.

SEQ ID NO: 6: cyclic peptide in which one amino acid has been substituted (CFALKLDRIGSMSGLGC; disulfide 1-17)
Post-treatment diagnostic skin impression (affected site of skin; eczema, large winkles, Formulation B (5 μg/ml)): Immediately after application, itches were eliminated.
Post-treatment diagnostic skin impression (affected site of skin; [2]): texture was improved. After 2 min, wrinkles were shallowed,; also recorded: skin was full and given resilience; also recorded: Immediately after application, itches were eliminated, skin

SEQ ID NO: 8: cyclic peptide in which one amino acid has been substituted (CFGLKMDRIGSMSGLGC; disulfide 1-17)
Post-treatment diagnostic skin impression (affected site of skin; atopic dermatitis, Formulation A (1 μg/ml), two-sided application (right vs left) in the same subject): After 1 min, erythema, infiltration, itches were remitted; also recorded: After 2 min, stining feeling was eliminated; also recorded: Immediately after application, itches were eliminated; also recorded: improved, skin texture was improved and moistened
Post-treatment diagnostic skin impression (affected site of skin; [3]): Immediately after application, itches were eliminated,; also recorded: erythema and scales were remitted
Post-treatment diagnostic skin impression (affected site of skin; [4]): the day next, erythema was remarkably improved; also recorded: After stopping 3 days of application, the effects lasted
Post-treatment diagnostic skin impression (affected site of skin; [5]): Immediately after application itches were eliminated; also recorded: After 3 min, skin texture was improved finely, pore
Post-treatment diagnostic skin impression (affected site of skin; seborrheic dermatitis, acne (comedo), Formulation C (30 μg/ml)): After 1 min, itches were eliminated; also recorded: opening became inconspicuous, acne (comedo) was reduced

SEQ ID NO: 12: cyclic peptide in which one amino acid has been substituted (CFGLKLDRIGVMSGLGC; disulfide 1-17)
Post-treatment diagnostic skin impression (affected site of skin; [2]): improved.

SEQ ID NO: 14: cyclic peptide in which one amino acid has been substituted (CFGLKLDRIGLMSGLGC; disulfide 1-17)
Post-treatment diagnostic skin impression (affected site of skin; [3]): After 1 min, itches, scales, erythema
Post-treatment diagnostic skin impression (affected site of skin; [6]): After 3 min, scales, crusts and infiltration were remitted.

SEQ ID NO: 15: cyclic peptide in which one amino acid has been substituted (CFGLKLDRIGSMTGLGC; disulfide 1-17)
Post-treatment diagnostic skin impression (affected site of skin; psoriasis vulgaris, Formulation B (5 μg/ml)): remarkably remitted, crusts were eliminated.
Post-treatment diagnostic skin impression (affected site of skin; psoriasis, Formulation B (5 μg/ml)): After 3 min, scales were remitted. 3 min after further; also recorded: reduced
Post-treatment diagnostic skin impression (affected site of skin; rough skin, wrinkles, Formulation A (1 μg/ml)): kept moistened, facial erythema and scales were normalized.
Post-treatment diagnostic skin impression (affected site of skin; seborrheic dermatitis, Formulation C (30 μg/ml)): Immediately after application, itches were remitted

SEQ ID NO: 17: cyclic peptide in which one amino acid has been substituted (CFGLKLDRIGSMSGAGC; disulfide 1-17)
Post-treatment diagnostic skin impression (affected site of skin; [4]): Immediately after application, itches were eliminated; also recorded: remitted

SEQ ID NO: 32 (CFALKMDRIGSMSGLGC; disulfide 1-17)
Post-treatment diagnostic skin impression (affected site of skin; [6]): remitted. After 10 min, erythema was further remitted.
Post-treatment diagnostic skin impression (affected site of skin; rough skin, acne (comedo), Formulation C (30 μg/ml)): Immediately after application, itches were eliminated; also recorded: (comedo) was reduced

SEQ ID NO: 35: cyclic peptide in which two amino acids have been substituted (CFALKLDRIGSMSGIGC; disulfide 1-17)
Post-treatment diagnostic skin impression (affected site of skin; [3]): Immediately after application, itches were eliminated,; also recorded: erythema ard scales were remarkably improved
Post-treatment diagnostic skin impression (affected site of skin; [4]): After 1 min, itches were eliminated; also recorded: After 2 min, scales and erythema were remarkably improved; also recorded: After 3 min, skin was almost normalized and moisturized

SEQ ID NO: 37: cyclic peptide in which two amino acids have been substituted (CFGLKMDRIGSMTGLGC; disulfide 1-17)
Post-treatment diagnostic skin impression (affected site of skin; atopic dermatitis, Formulation A (1 μg/ml in purified water) applied to affected site): After 2 min, itches were eliminated.
Post-treatment diagnostic skin impression (affected site of skin; [4]): Immediately after application, itches were remitted,; also recorded: erythema, infiltration and scales were remarkably improved

SEQ ID NO: 38: cyclic peptide in which two amino acids have been substituted (CFGLKMDRIGSMSGIGC; disulfide 1-17)
Post-treatment diagnostic skin impression (affected site of skin; [4]): After 1 min, itches were eliminated; also recorded: improved. After 3 min, skin was almost normalized and; also recorded: moisturized
Post-treatment diagnostic skin impression (affected site of skin; contact dermatitis, Formulation C (30 μg/ml)): After 1 min, itches was remitted; also recorded: After 3 min, swelling lessened, erythema was remitted
Post-treatment diagnostic skin impression (affected site of skin; [6]): After 3 min, scales and infiltration were remitted
Post-treatment diagnostic skin impression (affected site of skin; rough skin, contact dermatitis, Formulation A (1 μg/ml), two-sided application (right vs left)): After 2 min, rought desiccation and erythema was remitted,; also recorded: skin texture was improved and moisturized
Post-treatment diagnostic skin impression (affected site of skin; rough skin, wrinkles, Formulation B (5 μg/ml)): shallowed, skin was full and given resilience.
Post-treatment diagnostic skin impression (affected site of skin; [5]): kept moistened.

SEQ ID NO: 49: cyclic peptide in which three amino acids have been substituted (CFALKMDRIGSMTGLGC; disulfide 1-17)
Post-treatment diagnostic skin impression (affected site of skin; psoriasis vulgaris, Formulation A (1 μg/ml)): erythema were remitted.

SEQ ID NO: 51: cyclic peptide in which three amino acids have been substituted (CFGLKMDRIGTMTGLGC; disulfide 1-17)
Post-treatment diagnostic skin impression (affected site of skin; [4]): Immediately after application, itches were eliminated; also recorded: scratch scars were remitted
Post-treatment diagnostic skin impression (affected site of skin; eczema, Formulation B (5 μg/ml)): Immediately after application, itches were eliminated; also recorded: After 3 min, erythema and infiltration were remitted
